Results taken from ChEMBL document CHEMBL4376850, “1-Benzylpyrrolidine-3-amine-based BuChE inhibitors with anti-aggregating, antioxidant and metal-chelating properties as multifunctional agents against Alzheimer's disease” (Eur J Med Chem, 2020).
Calls of active or inactive are those of the source. The rule behind the calls is not given here.

Key:
Beta-secretase 1 = Beta-secretase 1 (Homo sapiens, UniProt P56817); details: 50 uM
[1] = molecular target: Amyloid-beta precursor protein (Homo sapiens) (UniProt P05067); details: at 10 µM
Sequence of Amyloid-beta precursor protein (Homo sapiens) (P05067 whole entry): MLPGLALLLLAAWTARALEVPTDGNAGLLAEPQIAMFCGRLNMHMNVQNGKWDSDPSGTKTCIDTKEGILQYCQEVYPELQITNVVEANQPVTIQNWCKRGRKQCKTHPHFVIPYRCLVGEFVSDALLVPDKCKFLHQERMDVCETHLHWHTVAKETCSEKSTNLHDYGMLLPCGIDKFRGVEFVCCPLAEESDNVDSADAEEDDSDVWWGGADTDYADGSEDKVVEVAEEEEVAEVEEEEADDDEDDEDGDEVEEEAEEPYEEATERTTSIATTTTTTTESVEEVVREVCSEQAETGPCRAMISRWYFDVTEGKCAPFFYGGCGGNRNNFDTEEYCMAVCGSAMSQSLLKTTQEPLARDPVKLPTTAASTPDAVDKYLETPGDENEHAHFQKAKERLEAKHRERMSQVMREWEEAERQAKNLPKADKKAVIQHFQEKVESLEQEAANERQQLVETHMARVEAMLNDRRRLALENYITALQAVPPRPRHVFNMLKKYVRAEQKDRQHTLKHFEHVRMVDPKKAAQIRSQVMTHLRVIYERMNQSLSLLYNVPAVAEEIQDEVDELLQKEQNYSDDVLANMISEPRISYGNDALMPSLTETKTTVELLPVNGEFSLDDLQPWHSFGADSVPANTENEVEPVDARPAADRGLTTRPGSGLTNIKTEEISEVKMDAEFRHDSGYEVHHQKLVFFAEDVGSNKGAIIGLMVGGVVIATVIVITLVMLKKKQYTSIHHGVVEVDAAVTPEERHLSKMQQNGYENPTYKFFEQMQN
Description: Inhibition of amyloid beta (1 to 42) (unknown origin) aggregation at 10 uM expressed in Escherichia coli BL21 (DE3) incubated for 24 hrs by thioflavin T-based fluorometric assay relative to control

[2] = molecular target: Cholinesterase (Equus caballus) (UniProt P81908); assay: Inhibition of equine serum BuChE at 10 uM using butyrylthiocholine chloride as substrate pre-incubated for 5 mins followed by substrate addition and measured after 5 mins by Ellman's method relative to control
Sequence of Cholinesterase (Equus caballus) (P81908 whole entry): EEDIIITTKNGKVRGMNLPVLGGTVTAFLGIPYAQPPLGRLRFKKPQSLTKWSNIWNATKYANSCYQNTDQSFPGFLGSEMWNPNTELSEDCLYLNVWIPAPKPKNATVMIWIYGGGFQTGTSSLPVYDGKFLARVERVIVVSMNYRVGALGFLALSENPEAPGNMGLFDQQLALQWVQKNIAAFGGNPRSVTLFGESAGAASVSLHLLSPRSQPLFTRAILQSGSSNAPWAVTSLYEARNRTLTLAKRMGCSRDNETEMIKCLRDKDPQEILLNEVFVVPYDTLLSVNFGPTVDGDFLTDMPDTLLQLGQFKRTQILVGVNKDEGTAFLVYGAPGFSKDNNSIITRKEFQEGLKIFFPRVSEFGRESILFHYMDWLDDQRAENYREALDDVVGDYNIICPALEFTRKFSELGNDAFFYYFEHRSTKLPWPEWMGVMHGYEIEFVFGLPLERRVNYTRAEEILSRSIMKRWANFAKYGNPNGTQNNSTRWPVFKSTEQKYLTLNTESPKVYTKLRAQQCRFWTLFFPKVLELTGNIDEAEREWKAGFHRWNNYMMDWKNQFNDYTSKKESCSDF

[3] = molecular target: Microtubule-associated protein tau (Homo sapiens) (UniProt P10636); assay: Inhibition of tau aggregation (unknown origin) at 10 uM expressed in Escherichia coli BL21 (DE3) incubated for 24 hrs by thioflavin T-based fluorometric assay relative to control
Sequence of Microtubule-associated protein tau (Homo sapiens) (P10636 whole entry): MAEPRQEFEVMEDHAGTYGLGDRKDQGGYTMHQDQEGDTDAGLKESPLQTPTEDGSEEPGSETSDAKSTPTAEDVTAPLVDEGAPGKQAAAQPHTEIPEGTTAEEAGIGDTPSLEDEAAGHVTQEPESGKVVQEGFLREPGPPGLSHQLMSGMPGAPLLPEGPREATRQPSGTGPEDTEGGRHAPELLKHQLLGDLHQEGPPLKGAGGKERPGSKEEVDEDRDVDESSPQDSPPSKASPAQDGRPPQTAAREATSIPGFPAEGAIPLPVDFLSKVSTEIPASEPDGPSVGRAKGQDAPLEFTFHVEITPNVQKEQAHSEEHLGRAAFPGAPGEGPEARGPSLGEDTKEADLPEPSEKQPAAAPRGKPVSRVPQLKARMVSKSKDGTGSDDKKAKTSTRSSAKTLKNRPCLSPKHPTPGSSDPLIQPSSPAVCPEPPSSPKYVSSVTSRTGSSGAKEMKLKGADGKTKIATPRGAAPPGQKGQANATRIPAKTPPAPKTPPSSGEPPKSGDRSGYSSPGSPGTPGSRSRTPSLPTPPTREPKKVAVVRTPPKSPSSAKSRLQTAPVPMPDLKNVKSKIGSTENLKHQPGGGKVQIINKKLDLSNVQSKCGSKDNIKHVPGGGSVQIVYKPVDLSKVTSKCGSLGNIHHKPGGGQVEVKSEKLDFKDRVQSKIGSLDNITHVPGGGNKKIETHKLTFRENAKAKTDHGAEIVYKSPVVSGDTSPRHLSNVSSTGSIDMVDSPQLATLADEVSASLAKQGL

[4] = molecular target: Acetylcholinesterase (Electrophorus electricus) (UniProt O42275); assay: Inhibition of Electrophorus electricus AChE at 10 uM using acetylthiocholine iodide as substrate preincubated for 5 mins followed by substrate addition and measured after 5 mins by Ellman's method relative to control
Sequence of Acetylcholinesterase (Electrophorus electricus) (O42275 24-633 limits assumed): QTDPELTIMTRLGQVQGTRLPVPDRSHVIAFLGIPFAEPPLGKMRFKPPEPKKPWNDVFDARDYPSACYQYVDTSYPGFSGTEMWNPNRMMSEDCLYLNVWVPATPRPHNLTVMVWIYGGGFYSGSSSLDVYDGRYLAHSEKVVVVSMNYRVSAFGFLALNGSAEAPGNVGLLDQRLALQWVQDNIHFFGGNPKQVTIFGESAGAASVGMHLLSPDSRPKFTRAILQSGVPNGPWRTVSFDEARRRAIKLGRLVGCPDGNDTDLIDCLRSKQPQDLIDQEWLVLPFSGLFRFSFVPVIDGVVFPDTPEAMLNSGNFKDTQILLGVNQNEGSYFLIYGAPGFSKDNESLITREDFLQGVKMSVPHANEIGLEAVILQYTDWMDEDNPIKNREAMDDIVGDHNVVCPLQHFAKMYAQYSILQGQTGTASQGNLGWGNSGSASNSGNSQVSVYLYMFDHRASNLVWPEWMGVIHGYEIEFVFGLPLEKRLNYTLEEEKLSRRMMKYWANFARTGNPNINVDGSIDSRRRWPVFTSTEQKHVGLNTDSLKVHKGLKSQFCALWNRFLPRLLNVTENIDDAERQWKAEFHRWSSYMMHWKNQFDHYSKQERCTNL

[5] = Metal chelating activity assessed as Cu2+-compound complex formation at 50 uM after 30 mins by UV-Visible spectrophotometric method
[6] = Antioxidant activity assessed as increase in total ferric ion reducing activity at 75 uM using FeCl3.H2O and TPTZ incubated for 5 mins by FRAP assay relative to control; type: functional; design: scale not given: the % may be the effect or the level left
[7] = Antioxidant activity assessed as increase in total ferric ion reducing activity at 30 uM using FeCl3.H2O and TPTZ incubated for 30 mins by FRAP assay relative to control; type: functional; design: scale not given: the % may be the effect or the level left
[8] = Antioxidant activity assessed as ABTS radical scavenging activity at 150 uM measured after 30 mins by spectrophotometric assay relative to control; type: functional
[9] = Antioxidant activity assessed as ABTS radical scavenging activity at 75 uM measured after 30 mins by spectrophotometric assay relative to control; type: functional
[10] = Antioxidant activity assessed as ABTS radical scavenging activity at 150 uM measured after 60 mins by spectrophotometric assay relative to control; type: functional
[11] = Antioxidant activity assessed as increase in total ferric ion reducing activity at 30 uM using FeCl3.H2O and TPTZ incubated for 5 mins by FRAP assay relative to control; type: functional; design: scale not given: the % may be the effect or the level left
[12] = Antioxidant activity assessed as increase in total ferric ion reducing activity at 75 uM using FeCl3.H2O and TPTZ incubated for 60 mins by FRAP assay relative to control; type: functional; design: scale not given: the % may be the effect or the level left
[13] = Antioxidant activity assessed as increase in total ferric ion reducing activity at 150 uM using FeCl3.H2O and TPTZ incubated for 30 mins by FRAP assay relative to control; type: functional; design: scale not given: the % may be the effect or the level left
[14] = Antioxidant activity assessed as ABTS radical scavenging activity at 30 uM measured after 60 mins by spectrophotometric assay relative to control; type: functional
[15] = Antioxidant activity assessed as increase in total ferric ion reducing activity at 150 uM using FeCl3.H2O and TPTZ incubated for 5 mins by FRAP assay relative to control; type: functional; design: scale not given: the % may be the effect or the level left
[16] = Antioxidant activity assessed as ABTS radical scavenging activity at 30 uM measured after 30 mins by spectrophotometric assay relative to control; type: functional
[17] = Antioxidant activity assessed as increase in total ferric ion reducing activity at 75 uM using FeCl3.H2O and TPTZ incubated for 30 mins by FRAP assay relative to control; type: functional; design: scale not given: the % may be the effect or the level left
[18] = Antioxidant activity assessed as ABTS radical scavenging activity at 30 uM measured after 5 mins by spectrophotometric assay relative to control; type: functional
[19] = Antioxidant activity assessed as increase in total ferric ion reducing activity at 30 uM using FeCl3.H2O and TPTZ incubated for 60 mins by FRAP assay relative to control; type: functional; design: scale not given: the % may be the effect or the level left
[20] = Antioxidant activity assessed as increase in total ferric ion reducing activity at 150 uM using FeCl3.H2O and TPTZ incubated for 60 mins by FRAP assay relative to control; type: functional; design: scale not given: the % may be the effect or the level left
[21] = Antioxidant activity assessed as ABTS radical scavenging activity at 75 uM measured after 5 mins by spectrophotometric assay relative to control; type: functional
[22] = Antioxidant activity assessed as ABTS radical scavenging activity at 75 uM measured after 60 mins by spectrophotometric assay relative to control; type: functional
[23] = Antioxidant activity assessed as ABTS radical scavenging activity at 150 uM measured after 5 mins by spectrophotometric assay relative to control; type: functional
Cholinesterase = Cholinesterase (Equus caballus, UniProt P81908)
Sequence of Cholinesterase (P81908 whole entry): as the sequence (P81908 whole entry) above
Description: Inhibition of equine serum BuChE using butyrylthiocholine chloride as substrate pre-incubated for 5 mins followed by substrate addition and measured after 5 mins by Ellman's method

Sequence of Beta-secretase 1 (P56817 whole entry): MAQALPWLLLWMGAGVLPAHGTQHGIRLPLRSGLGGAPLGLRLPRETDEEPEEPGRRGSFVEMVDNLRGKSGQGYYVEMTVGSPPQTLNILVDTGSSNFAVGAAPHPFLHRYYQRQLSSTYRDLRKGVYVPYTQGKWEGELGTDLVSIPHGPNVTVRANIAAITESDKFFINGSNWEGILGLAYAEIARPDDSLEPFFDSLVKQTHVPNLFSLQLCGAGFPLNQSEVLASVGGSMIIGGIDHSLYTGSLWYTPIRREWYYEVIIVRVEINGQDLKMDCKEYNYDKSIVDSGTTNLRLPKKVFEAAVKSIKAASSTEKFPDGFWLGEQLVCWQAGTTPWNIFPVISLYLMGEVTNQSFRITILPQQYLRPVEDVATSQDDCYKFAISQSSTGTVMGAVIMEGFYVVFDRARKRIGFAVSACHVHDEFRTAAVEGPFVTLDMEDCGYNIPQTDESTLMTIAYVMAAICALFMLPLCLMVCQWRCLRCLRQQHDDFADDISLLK

O=C(CCN1CCC(CCc2ccccc2)CC1)NC1CCN(Cc2ccccc2)C1 (centres undefined)
inhibition (Beta-secretase 1): < 10% | inhibition [1]: 47.8% | inhibition [2]: 16.3% | inhibition [3]: 57.9% | inhibition [4]: 32.9%

O=C(CN1CCN(Cc2ccccc2)CC1)NC1CCN(Cc2ccccc2)C1 (centres undefined)
inhibition (Beta-secretase 1): 40.7% | inhibition [1]: 37.4% | inhibition [2]: 17.8% | inhibition [3]: 66.7% | inhibition [4]: < 10%

O=C(CN1CCC(CCc2ccccc2)CC1)NC1CCN(Cc2ccccc2)C1 (centres undefined)
inhibition (Beta-secretase 1): 50.5% | inhibition [1]: 48.3% | inhibition [2]: 33.1% | inhibition [3]: 53.5% | inhibition [4]: < 10%

O=C(CN1CCC(c2ccccc2)CC1)NC1CCN(Cc2ccccc2)C1 (centres undefined)
inhibition (Beta-secretase 1): 48.4% | Activity [5]: Active | inhibition [1]: 43.7% | inhibition [2]: 33.3% | inhibition [3]: 53.6% | inhibition [4]: < 10%

c1ccc(CN2CCC(NCCN3CCN(c4ccccc4)CC3)C2)cc1 (centres undefined)
Activity [6]: 23% | Activity [7]: 39% | Activity [8]: 98% | inhibition (Beta-secretase 1): 40.7% | Activity [5]: Active | Activity [9]: 78% | Activity [10]: 99% | inhibition [1]: 38.5% | Activity [11]: 15% | Activity [12]: 68% | Activity [13]: 68% | Activity [14]: 80% | Activity [15]: 55% | Activity [16]: 71% | Activity [17]: 54% | inhibition [2]: 23.9% | Activity [18]: 42% | Activity [19]: 55% | Activity [20]: 79% | Activity [21]: 50% | Activity [22]: 85% | inhibition [3]: 79.5% | inhibition [4]: < 10% | Activity [23]: 76%

c1ccc(CCC2CCCN(CCNC3CCN(Cc4ccccc4)C3)C2)cc1 (centres undefined)
Activity [6]: 2% | Activity [7]: 6% | Activity [8]: 60% | inhibition (Beta-secretase 1): 42.6% | Activity [5]: Active | Activity [9]: 26% | Activity [10]: 76% | inhibition [1]: 41.3% | Activity [11]: 4% | Activity [12]: 4% | Activity [13]: 9% | IC50 (Cholinesterase): 3.26 µM | Activity [14]: 25% | Activity [15]: 9% | Activity [16]: 18% | Activity [17]: 3% | Activity [18]: 12% | Activity [19]: 7% | Activity [20]: 11% | Activity [21]: 12% | Activity [22]: 36% | inhibition [3]: 57.2% | inhibition [4]: 38.5% | Activity [23]: 33%

O=C(CN1CCCC(CCc2ccccc2)C1)NC1CCN(Cc2ccccc2)C1 (centres undefined)
inhibition (Beta-secretase 1): 28.8% | IC50 (Cholinesterase): 10.3 µM | inhibition [4]: 26.7%

Cc1c(C)c2c(c(C)c1O)CCC(C)(C(=O)O)O2 (centres undefined)
Activity [6]: 100% | Activity [7]: 100% | Activity [8]: 100% | Activity [9]: 100% | Activity [10]: 100% | Activity [11]: 100% | Activity [12]: 100% | Activity [13]: 100% | Activity [14]: 100% | Activity [15]: 100% | Activity [16]: 100% | Activity [17]: 100% | Activity [18]: 100% | Activity [19]: 100% | Activity [20]: 100% | Activity [21]: 100% | Activity [22]: 100% | Activity [23]: 100%

O=C(CN1CCCC(c2ccccc2)C1)NC1CCN(Cc2ccccc2)C1 (centres undefined)
inhibition (Beta-secretase 1): 14.7% | inhibition [1]: 38.8% | inhibition [2]: 46% | inhibition [3]: 43.6% | inhibition [4]: 30.6%

c1ccc(CC2CCCN(CCNC3CCN(Cc4ccccc4)C3)C2)cc1 (centres undefined)
Activity [6]: 24% | Activity [7]: 10% | Activity [8]: 80% | inhibition (Beta-secretase 1): 24.1% | Activity [5]: Active | Activity [9]: 40% | Activity [10]: 94% | Activity [11]: 7% | Activity [12]: 30% | Activity [13]: 32% | IC50 (Cholinesterase): 1.94 µM | Activity [14]: 5% | Activity [15]: 30% | Activity [16]: 14% | Activity [17]: 28% | Activity [18]: 21% | Activity [19]: 10% | Activity [20]: 35% | Activity [21]: 18% | Activity [22]: 53% | inhibition [4]: 29.9% | Activity [23]: 49%

c1ccc(CCC2CCN(CCCNC3CCN(Cc4ccccc4)C3)CC2)cc1 (centres undefined)
inhibition (Beta-secretase 1): 17% | inhibition [1]: 36.3% | inhibition [2]: 25.6% | inhibition [3]: 52.8% | inhibition [4]: 34.9%

O=C(CN1CCCC(Cc2ccccc2)C1)NC1CCN(Cc2ccccc2)C1 (centres undefined)
inhibition (Beta-secretase 1): < 10% | inhibition [1]: 45.1% | IC50 (Cholinesterase): 7 µM | inhibition [3]: 54.2% | inhibition [4]: 27.6%

O=C(CN1CCN(C(c2ccccc2)c2ccccc2)CC1)NC1CCN(Cc2ccccc2)C1 (centres undefined)
inhibition (Beta-secretase 1): 40% | inhibition [1]: 27.9% | inhibition [2]: < 10% | inhibition [3]: 61.2% | inhibition [4]: < 10%

O=C(CN1CCN(c2ccccc2)CC1)NC1CCN(Cc2ccccc2)C1 (centres undefined)
Activity [6]: 14% | Activity [7]: 33% | Activity [8]: 66% | inhibition (Beta-secretase 1): 43.7% | Activity [9]: 49% | Activity [10]: 76% | inhibition [1]: 34.5% | Activity [11]: 10% | Activity [12]: 60% | Activity [13]: 58% | Activity [14]: 62% | Activity [15]: 44% | Activity [16]: 50% | Activity [17]: 44% | inhibition [2]: < 10% | Activity [18]: 23% | Activity [19]: 49% | Activity [20]: 72% | Activity [21]: 23% | Activity [22]: 59% | inhibition [3]: 74.8% | inhibition [4]: < 10% | Activity [23]: 36%

c1ccc(CCN2CCN(CCNC3CCN(Cc4ccccc4)C3)CC2)cc1 (centres undefined)
Activity [6]: 5% | Activity [7]: 9% | Activity [8]: 73% | inhibition (Beta-secretase 1): 33.5% | Activity [9]: 41% | Activity [10]: 82% | inhibition [1]: 34.7% | Activity [11]: 8% | Activity [12]: 18% | Activity [13]: 40% | Activity [14]: 34% | Activity [15]: 39% | Activity [16]: 28% | Activity [17]: 15% | inhibition [2]: 25.7% | Activity [18]: 14% | Activity [19]: 10% | Activity [20]: 43% | Activity [21]: 22% | Activity [22]: 48% | inhibition [3]: 59.6% | inhibition [4]: < 10% | Activity [23]: 46%

O=C(CN1CCN(CCc2ccccc2)CC1)NC1CCN(Cc2ccccc2)C1 (centres undefined)
inhibition (Beta-secretase 1): 48.6% | inhibition [1]: 15.2% | inhibition [2]: 15.3% | inhibition [3]: 61.3% | inhibition [4]: < 10%

c1ccc(CN2CCC(NCCN3CCCC(c4ccccc4)C3)C2)cc1 (centres undefined)
Activity [6]: 15% | Activity [7]: 13% | Activity [8]: 85% | inhibition (Beta-secretase 1): 25% | Activity [5]: Active | Activity [9]: 47% | Activity [10]: 96% | Activity [11]: 11% | Activity [12]: 25% | Activity [13]: 36% | IC50 (Cholinesterase): 2.39 µM | Activity [14]: 38% | Activity [15]: 34% | Activity [16]: 27% | Activity [17]: 22% | Activity [18]: 14% | Activity [19]: 15% | Activity [20]: 39% | Activity [21]: 24% | Activity [22]: 59% | inhibition [4]: 40.8% | Activity [23]: 54%

c1ccc(CN2CCC(NCCN3CCC(c4ccccc4)CC3)C2)cc1 (centres undefined)
Activity [6]: 0% | Activity [7]: 3% | Activity [8]: 75% | inhibition (Beta-secretase 1): 11.8% | Activity [5]: Active | Activity [9]: 39% | Activity [10]: 84% | inhibition [1]: 37.4% | Activity [11]: 2% | Activity [12]: 6% | Activity [13]: 6% | Activity [14]: 31% | Activity [15]: 10% | Activity [16]: 24% | Activity [17]: 4% | inhibition [2]: 45.5% | Activity [18]: 13% | Activity [19]: 3% | Activity [20]: 8% | Activity [21]: 15% | Activity [22]: 48% | inhibition [3]: 68.1% | inhibition [4]: < 10% | Activity [23]: 37%
